Experimental data from patent US9616033B2, “Selective metabolic approach to increasing oral bioavailability of phenylephrine and other phenolic bioactivities” (VIRGINIA COMMONWEALTH UNIVERSITY, priority 2011, dated 2017).
“Also recorded” adds a separate entry of the source. One block for each molecule: values may come before it.

How the values were obtained:
[1] = system: human LS180 intestinal cells; test: Inhibition of phenylephrine (PE) metabolism (PE disappearance) in LS180 cells; format: cell-based; conditions: for activity at 100 µM: Homo sapiens; for effect on PE disappearance / PE metabolism (in words): inhibitor 100 μM
Method: The inhibitors which can be used in the practice of the invention are wide ranging. […] The LS180 model provides an inexpensive method to imitate the human intestine, with regards to PE metabolism. […] For the LS180 experiments, LS180 cells are seeded at the concentration of 1.9×10^5 cells/ml in 12-well plate. […] After incubation, medium is removed and stored at −80° C. until analysis. The metabolic reactions are quenched by placing 12-well plate on ice and quickly rinsing each well. The cell extraction of metabolites is carried out with 1 ml 2% acetic acid solution in methanol. Cells are scraped and collected in centrifuge tubes. The suspension is mixed for 2-3 min and centrifuged at 18,000 rcf for 5 min. Supernatants (800 μl) are collected. After scraping, each well is washed twice as above. The washing solution is collected with the supernatant and dried under reduced pressure. The residue is re-suspended in 35 μl water and analyzed by HPLC. […] The data are processed with one-way ANOVA followed by Dunnett's post test; * indicates p<0.05.
Phenolic compounds were selected from FDA's “GRAS” list, approved food additives, or dietary supplements. LS180 cells were used as a model to test the effect of these phenolic compounds on the pre-systemic sulfation of PE. The cells were incubated in 0.5 ml medium with PE (50 μM)±inhibitor (100 μM) overnight. Extracellular buffer was collected and cells were extracted with methanol. PE was determined by reversed-phase HPLC with fluorescence detection. The formation of PE-sulfate was analyzed by LC-MS/MS. Results (n=3 per group) were analyzed by one-way ANOVA with Dunnett's post-test (p<0.05; Prism 5).

LS180 cells [2] = test: Inhibition of resveratrol metabolism (disappearance) in LS180 cells; format: cell-based, human; conditions: for activity at 100 µM: Homo sapiens, read-out: Extent of RES Disappearance (as % of control); for inhibition of resveratrol metabolism (in words): 4 hours
LS180 cells [3] = test: Inhibition of 2-methoxyestradiol metabolism (disappearance) in LS180 cells; format: cell-based, human; conditions: for activity at 100 µM: Homo sapiens, LS180, 1 h
[4] = Fenaroli, 2010; cited from earlier work
[5] = Biopharmaceutical Classification System (BCS) classification; conditions: high permeability, high aqueous solubility
From the text: Interpreting the data published by Hengstmann, the mass balance of total radioactivity excreted into urine following an oral dose was 92% of what was recovered following an intravenous dose, so that phenylephrine would therefore be considered a “high permeability” compound. (Hengstmann and Goronzy, 1982; Amidon et al., 1995) Combining this with its high aqueous solubility, phenylephrine would be classified as a Biopharmaceutical Classification System (BCS) class 1 compound. […] (Amidon et al., 1995; Wu and Benet, 2005) Therefore, to improve the oral bioavailability of PE, a metabolism-targeted approach would be most useful.

[6] = cited from earlier work
[7] = system: human LS180 intestinal cells; test: Inhibition of PE sulfate formation in LS180 cells; format: cell-based; conditions: PE 50 μM ± inhibitor 100 μM, overnight, LC-MS/MS, read-out: PE-sulfate formation inhibited to (control=100%)
From the text: The inhibitors which can be used in the practice of the invention are wide ranging. Tables 1 and 2 show results with a number of different compounds which can function as inhibitors of SULT, MAO, CYP, COMT or UGT enzymes, or which otherwise may be used to increase the bioavailability of the exemplary bioactive phenylephrine. […] In Tables 1 and 2, human LS180 intestinal cells were used for screening the inhibition of PE metabolism. For the experiment which produced the results in Table 1, the concentration of PE was […]; the concentration of vitamin C (where present) was 1 mM; the total concentration of other inhibitors was 100 μM. Cells were incubated at 37° C. for 14 to 17.5 hours, as indicated. […] The residue is re-suspended in 35 μl water and analyzed by HPLC. All the samples are analyzed for PE by HPLC with a phenyl column (150×3.2 mm, 5 μm, 55° C.) at the flow rate of […] (20% methanol and 80% (aqueous 1% acetic acid)) and detected by fluorescence (excitation 270 nm, emission 305 nm). […]
Phenolic compounds were selected from FDA's “GRAS” list, approved food additives, or dietary supplements. […] PE was determined by reversed-phase HPLC with fluorescence detection. The formation of PE-sulfate was analyzed by LC-MS/MS. Results (n=3 per group) were analyzed by one-way ANOVA with Dunnett's post-test (p<0.05; Prism 5).

[8] = PE 50 μM ± inhibitor 100 μM, LS180 cells, overnight, n=3, control=503±127 pmol/hr, read-out: extent of disappearance of PE (mean±SD, as % of control)
[9] = PE 50 μM, inhibitors total 100 μM (ascorbic acid 1 mM), LS180 cells, incubation 17 hr, read-out: Extent of PE Disappearance (as % of control)
[10] = resveratrol 25 μM, inhibitor 100 μM, LS180 cells, incubation 4 hr
[11] = resveratrol 25 μM, inhibitor 100 μM, LS180 cells
[12] = PE 50 μM, inhibitors total 100 μM (ascorbic acid 1 mM), LS180 cells, incubation 14 hr, read-out: Extent of PE Disappearance (as % of control)
[13] = PE 50 μM, LS180 cells, overnight
[14] = 2-ME 10 μM, inhibitor 100 μM, incubation time 1 hr (table)
[15] = 2-ME 10 μM, inhibitor 100 μM, incubation time 1 hr (table), read-out: Extent of 2-ME Disappearance (as % of control)
[16] = PE 50 μM, inhibitors total 100 μM, LS180 cells, incubation 19 hr, read-out: Extent of PE Disappearance (as % of control)
[17] = PE 50 μM, inhibitors total 100 μM, LS180 cells, incubation 17.5 hr, read-out: Extent of PE Disappearance (as % of control)

Compound: COc1cc(CCC(C)=O)ccc1O [zingerone]
- activity at 100 µM [1, 8]: 52 ± 25%
- activity at 100 µM [1, 9]: 52.4%
- activity at 100 µM (LS180 cells [2]; [10]): 83.7%

Compound: O=C(O)C=Cc1ccccc1 [cinnamic acid]
- activity at 100 µM (LS180 cells [2]; [10]): 16.3%
- inhibition of resveratrol metabolism (in words) (LS180 cells [2]; [11]): significant inhibition

Compound: CCCOC(=O)c1cc(O)c(O)c(O)c1 [propyl gallate]
- activity at 100 µM [1, 12]: 114%
- effect on PE disappearance / PE metabolism (in words) [1, 13]: no significant effect on PE disappearance
- activity at 100 µM (LS180 cells [2]; [10]): 51.2%
- inhibition of resveratrol metabolism (in words) (LS180 cells [2]; [11]): significant inhibition
- inhibition of 2ME metabolism (in words) (LS180 cells [3]; 2-ME 10 μM, inhibitor 100 μM): Significant inhibition
- Extent of 2-ME Disappearance (as % of control) (LS180 cells [3]; [14]): 50.4%
- activity at 100 µM (LS180 cells [3]; [15]): 42.8%

Compound: COc1cc(C(=O)O)ccc1O [vanillic acid]
- activity at 100 µM (LS180 cells [2]; [10]): 103%
- activity at 100 µM (LS180 cells [3]; [15]): 99.1%

Compound: COc1cc(C=O)ccc1O [vanillin]
- activity at 100 µM [1, 12]: 90.2%
- effect on PE disappearance / PE metabolism (in words) [1, 13]: failed to inhibit PE metabolism alone; also recorded: no significant effect on PE disappearance
- activity at 100 µM (LS180 cells [2]; [10]): 44.8%
- inhibition of resveratrol metabolism (in words) (LS180 cells [2]; [11]): significant inhibition
- inhibition of 2ME metabolism (in words) (LS180 cells [3]; 2-ME 10 μM, inhibitor 100 μM): Significant inhibition
- Extent of 2-ME Disappearance (as % of control) (LS180 cells [3]; [14]): 39.4%
- activity at 100 µM (LS180 cells [3]; [15]): 51.2%
- acceptable daily intake [4]: 10 mg/kg/day

Compound: COc1cc(/C=C/C(=O)O)cc(OC)c1O [sinapic acid]
- activity at 100 µM (LS180 cells [2]; [10]): 86.1%
- activity at 100 µM (LS180 cells [3]; [15]): 88.1%

Compound: CC=Cc1ccc(O)c(OC)c1 [isoeugenol]
- activity at 100 µM [1, 8]: 74 ± 8%
- activity at 100 µM [1, 16]: 73.9%

- Biopharmaceutical Classification System (BCS) class [5]: class 1
Compound: CNC[C@H](O)c1cccc(O)c1 [phenylephrine]
- total radioactivity excreted into urine following an oral dose, relative to intravenous dose ([6]; mass balance, oral vs intravenous, Hengstmann data): 92%
- oral bioavailability ([6]; oral): < 38%

Compound: O=C(/C=C/C=C/c1ccc2c(c1)OCO2)N1CCCCC1 [piperine]
- activity at 100 µM (LS180 cells [2]; [10]): 26.4%

Compound: O=C(O)c1cc(O)c(O)c(O)c1 [gallic acid]
- activity at 100 µM (LS180 cells [3]; [15]): 102%

Compound: CCOc1cc(C=O)ccc1O [ethylvanillin]
- activity at 100 µM [1, 9]: 76.5%
- activity at 100 µM (LS180 cells [2]; [10]): 8.1%
- inhibition of resveratrol metabolism (in words) (LS180 cells [2]; [11]): greatest extent of inhibition

Compound: O=CC=Cc1ccccc1 [cinnamaldehyde]
- Extent of 2-ME Disappearance (as % of control) (LS180 cells [3]; [14]): 93.9%
- activity at 100 µM (LS180 cells [3]; [15]): 87.6%

Compound: COc1cc(/C=C/C(=O)O)ccc1O [ferulic acid]
- activity at 100 µM (LS180 cells [2]; [10]): 100%
- activity at 100 µM (LS180 cells [3]; [15]): 102%

Compound: C[C@@H]1O[C@@H](O[C@H]2[C@H](Oc3cc(O)c4c(c3)O[C@H](c3ccc(O)cc3)CC4=O)O[C@H](CO)[C@@H](O)[C@@H]2O)[C@H](O)[C@H](O)[C@H]1O [naringin]
- activity at 100 µM [1, 17]: 75.7%

Compound: Oc1ccc(C=Cc2cc(O)cc(O)c2)cc1 [resveratrol]
- activity at 100 µM [1, 8]: 14 ± 48%
- activity at 100 µM [1, 17]: 14.2%

Compound: COC(=O)c1ccc(O)cc1 [methylparaben]
- activity at 100 µM [1, 9]: 75.9%
- activity at 100 µM (LS180 cells [2]; [10]): 0.4%
- inhibition of resveratrol metabolism (in words) (LS180 cells [2]; [11]): greatest extent of inhibition

Compound: COc1cc(/C=C/c2ccc(O)cc2)cc(OC)c1 [pterostilbene]
- activity at 100 µM [1, 8]: 71 ± 7%
- activity at 100 µM [1, 16]: 70.6%

Compound: C=CCc1ccc(O)c(OC)c1 [eugenol]
- activity at 100 µM ([1]; LS180, 17.5 h, read-out: Extent of PE Disappearance (as % of control)): 133%
- effect on PE disappearance / PE metabolism (in words) [1, 13]: failed to inhibit PE metabolism alone; also recorded: no significant effect on PE disappearance
- activity at 100 µM (LS180 cells [2]; LS180, 4 h): 38.3%
- inhibition of resveratrol metabolism (in words) (LS180 cells [2]; [11]): significant inhibition
- inhibition of 2ME metabolism (in words) (LS180 cells [3]; 2-ME 10 μM, inhibitor 100 μM): Significant inhibition
- Extent of 2-ME Disappearance (as % of control) (LS180 cells [3]; [14]): 33.9%
- activity at 100 µM (LS180 cells [3]; read-out: Extent of 2-ME Disappearance (as % of control), 2-ME 10 μM, inhibitor 100 μM, incubation time 1 hr (table)): 21.2%

Compound: O=c1c(O)c(-c2ccc(O)c(O)c2)oc2cc(O)cc(O)c12 [quercetin]
- activity at 100 µM [1, 17]: 48.7%

Compound: CCCOC(=O)c1ccc(O)cc1 [propylparaben]
- activity at 100 µM [1, 12]: 53.8%
- activity at 100 µM (LS180 cells [2]; [10]): 57.8%
- inhibition of resveratrol metabolism (in words) (LS180 cells [2]; [11]): significant inhibition
- inhibition of 2ME metabolism (in words) (LS180 cells [3]; 2-ME 10 μM, inhibitor 100 μM): Significant inhibition
- Extent of 2-ME Disappearance (as % of control) (LS180 cells [3]; [14]): 57.7%
- activity at 100 µM (LS180 cells [3]; [15]): 51.7%

Compound: COc1cc(/C=C/C(=O)CC(=O)/C=C/c2ccc(O)c(OC)c2)ccc1O [curcumin]
- activity at 100 µM [1, 8]: 24 ± 24%
- activity at 100 µM [1, 9]: 24.5%

Compound: O=C(O)/C=C/c1ccc(O)c(O)c1 [caffeic acid]
- activity at 100 µM (LS180 cells [2]; [10]): 91.1%
- activity at 100 µM (LS180 cells [3]; [15]): 93.3%

Compound: COc1ccccc1O [guaiacol]
- activity at 100 µM [1, 8]: 51 ± 14%
- activity at 100 µM ([1]; PE 50 μM, inhibitors total 100 μM, LS180 cells, incubation 18.5 hr, read-out: Extent of PE Disappearance (as % of control)): 51.3%
- activity at 100 µM [7]: 33 ± 7%
